Reference: patent publication US9669003B2, “Use of flavone and flavanone derivatives in preparation of sedative and hypnotic drugs” (priority 2012, dated 2017)
Marks after values point to notes of the source that are not given here.

Assays:
Type in all cases: in vivo
Kunming mice [1] = test: Influence on autonomic activity of normal mice (ZIL-2 mice autonomic activity meter, counts within 10 min); conditions: intragastric, x ± s, n = 10; for Times of activities in 1 h after drug administration/10 min: 1 h after administration; for Times of activities in 2 h after drug administration/10 min: 2 h after administration; for Times of activities in 24 h after drug administration/10 min: 24 h after administration
From the text: (§1) 1.1 Animals for experiments: Kunming mice, weighting 18.9˜22.2 g for females, and 20.2˜23.0 g for males, licensed under SCXK-(Ji) 2007-0003, and provided by The experimental animal centre, Jilin University.
(§2) 1.2 Chemicals for experiments: The flavone derivatives provided in Examples 1-41 and the flavanone derivatives provided in Examples 42-71 are all formulated with 0.5% sodium carboxymethyl cellulose as solutions with required concentrations.
(§3) 1.3 Grouping of animals: 6420 animals are employed in the entire experiments and 2140 of the animals are randomly divided into 214 groups by gender, and the […] include: control group, low dosage group for each experimental drugs (25 mg/kg), medium dosage group for each experimental drugs (50 mg/kg), and high dosage group for each experimental drugs (100 mg/kg). Each group has 10 animals and either female or male constitutes half of the group. The groups are used in behavior observation and voluntary action observation. The other 4280 animals are randomly divided into 214 groups by gender respectively (the grouping way is the same with that described above). Each group has 20 animals and either female or male constitutes half of the group. In each group, 10 animals are used in hypnosis experimentations with pentobarbital sodium doses below the threshold, and the other 10 animals are used hypnosis experimentations with pentobarbital sodium doses at the threshold.
1.4 Experimental instrument and agents: ZIL-2 mice autonomic activity meter, production of Institute of Materia Medica of Chinese Academy of Medical Sciences; pentobarbital sodium, Lot: 100808, 25 g/bottle, Beijing Chemical Reagent Company equipment imported from Germany.
1.5.2 Influence on Autonomic Activity of Normal Mice
After observing the general behavior, in 1 h, 2 h and 24 h after drug administration, respectively, ZIL-2 mice autonomic activity meter is put respectively. Number of autonomic activities of each group of mice is measured within 10 min. Results among groups are compared.
(§4) Number of autonomic activities is detected by leneve Test for homogeneity of variance. If the homogeneity of variance is good (P>0.05), statistical analysis is performed with ANOVA. If ANOVA have statistical significance (P≦0.05), Dunnett's test for multiple comparisons analysis is performed. Number of animals of sleeping mice is applied of ANOVA. Incidence rate of animal asleep is applied of χ2 test. Sleep latency and sleep duration are recorded in min, averaged by group, represented by standard deviation, and undergo statistical analysis using ANOVA.

Kunming mice [2] = test: Influence on hypnosis effect with pentobarbital sodium doses below the threshold (25 mg/kg i.p.); conditions: pentobarbital sodium 25 mg/kg i.p. 60 min later, sleep observed in 30 min, n = 10
From the text: as §1, §2, §3
1.5.3 Influence on Hypnosis Effect with Mice Pentobarbital Sodium Doses Below the Threshold
(§5) The drug is intragastric administered in mice for single time, 2 animals of each group are given drug per round with the dosing interval of 40 min (±5 min). According to the administration round, in 60 min (±5 min) of each round after the drug administration, the animals were intraperitoneally injected 0.3% sodium pentobarbital 25 mg/kg, respectively. Sleep condition of the animals were observed within 30 min (under sleep determination standard of loss of righting reflex more than 1 min). After animals undergo loss of righting reflex, number of the animals is recorded, to calculate sleep percentage.
as §4

Kunming mice [3] = test: Influence on hypnosis effect with pentobarbital sodium doses at the threshold (50 mg/kg i.p.); conditions: pentobarbital sodium 50 mg/kg i.p. 60 min later, x ± s, n = 10
From the text: as §1, §2, §3
1.5.4 Influence on Hypnosis Effect with Mice Pentobarbital Sodium Doses at the Threshold
as §5, with “50” for “25”, “Time to fall asleep (sleep latency) and sleep duration” for “Sleep condition”, “recorded” for “observed”, “under” for “30 min (under”, “min.” for “min). After animals undergo loss of righting reflex, number of the animals is recorded, to calculate sleep percentage.”
as §4

[4] = test drug 25 mg/kg intragastric single dose
[5] = test drug 50 mg/kg intragastric single dose
[6] = test drug 100 mg/kg intragastric single dose
[7] = 25 mg/kg intragastric single dose
[8] = 50 mg/kg intragastric single dose
[9] = 100 mg/kg intragastric single dose

Row | Compound | Times of activities in 1 h after drug administration/10 min (Kunming mice [1]; 25 mg/kg) | Times of activities in 2 h after drug administration/10 min (Kunming mice [1]; 25 mg/kg) | Times of activities in 24 h after drug administration/10 min (Kunming mice [1]; 25 mg/kg) | Times of activities in 1 h after drug administration/10 min (Kunming mice [1]; 50 mg/kg) | Times of activities in 2 h after drug administration/10 min (Kunming mice [1]; 50 mg/kg) | Times of activities in 24 h after drug administration/10 min (Kunming mice [1]; 50 mg/kg) | Times of activities in 1 h after drug administration/10 min (Kunming mice [1]; 100 mg/kg) | Times of activities in 2 h after drug administration/10 min (Kunming mice [1]; 100 mg/kg) | Times of activities in 24 h after drug administration/10 min (Kunming mice [1]; 100 mg/kg) | Number of sleeping animals (Kunming mice [2]; [4]) | rate of sleeping (%) (Kunming mice [2]; [4]) | Number of sleeping animals (Kunming mice [2]; [5]) | rate of sleeping (%) (Kunming mice [2]; [5]) | Number of sleeping animals (Kunming mice [2]; [6]) | rate of sleeping (%) (Kunming mice [2]; [6]) | duration of sleep (Kunming mice [3]; [7]) | time to sleep (Kunming mice [3]; [7]) | duration of sleep (Kunming mice [3]; [8]) | time to sleep (Kunming mice [3]; [8]) | duration of sleep (Kunming mice [3]; [9]) | further results
1 | C=Cc1cc(-c2cc(=O)c3c(C4CCSC4)cc(C(N)=O)cc3o2)cc(N)c1CC (stereo not drawn) [Example 17] | 284.9 ± 49.3 /10 min | 280.1 ± 42.7 /10 min | 306.2 ± 81.3 /10 min | 176.6 ± 50.2 /10 min | 189.3 ± 57.3 /10 min | 291.5 ± 70.0 /10 min | 153.1 ± 38.4 /10 min | 135.9 ± 48.7 /10 min | 302.1 ± 89.0 /10 min | 3 | 30% | 6 | 60** % | 7 | 70** % | 32.56 ± 25.95 min | 5.55 ± 1.45 min | 45.62 ± 21.08 min | 3.97 ± 1.26 min | 57.86 ± 25.22 min | time to sleep (Kunming mice [3]; [9]): 3.96 ± 1.14 min
2 | C=Cc1cc(C2CC(=O)c3cc(C(N)=O)c(C4CCSC4)c(Oc4ccccc4)c3O2)ccc1N (stereo not drawn) [Example 57] | 299.9 ± 58.2 /10 min | 288.1 ± 73.0 /10 min | 311.7 ± 81.2 /10 min | 245.4 ± 45.9 /10 min | 240.8 ± 63.24 /10 min | 315.9 ± 85.6 /10 min | 206.6 ± 44.2 /10 min | 199.6 ± 49.9 /10 min | 325.7 ± 82.6 /10 min | 4 | 40* % | 6 | 60** % | 7 | 70** % | 41.14 ± 23.51 min | 4.61 ± 1.53 min | 48.87 ± 19.80 min | 4.13 ± 1.71 min | 54.44 ± 21.81 min | time to sleep (Kunming mice [3]; [9]): 3.43 ± 1.20 min
